Consider 3 compounds from patent publication US8026218B2, “Bifunctional analgesic compounds for opioid receptor agonists and neurokinin-1 receptor antagonists” (The University of Arizona, priority 2006, dated 2011).

The target of data set [1] is T1, Substance P receptors (guinea pig NK1) (Cavia porcellus, UniProt P30547).
T1 construct: from tissue; host or cells: guinea pig (Hartley) ileum LMMP, 1 μM naloxone present
As to the kind of experiment: Guinea pig isolated ileum (GPI) assay with substance P stimulation in presence of 1 μM naloxone.

For data set [2], the target named is T2, human NK1 receptor (hNK1) (Homo sapiens, UniProt P25103).
T2 construct: expressed in transfected cells
T2 sequence (P25103 whole entry): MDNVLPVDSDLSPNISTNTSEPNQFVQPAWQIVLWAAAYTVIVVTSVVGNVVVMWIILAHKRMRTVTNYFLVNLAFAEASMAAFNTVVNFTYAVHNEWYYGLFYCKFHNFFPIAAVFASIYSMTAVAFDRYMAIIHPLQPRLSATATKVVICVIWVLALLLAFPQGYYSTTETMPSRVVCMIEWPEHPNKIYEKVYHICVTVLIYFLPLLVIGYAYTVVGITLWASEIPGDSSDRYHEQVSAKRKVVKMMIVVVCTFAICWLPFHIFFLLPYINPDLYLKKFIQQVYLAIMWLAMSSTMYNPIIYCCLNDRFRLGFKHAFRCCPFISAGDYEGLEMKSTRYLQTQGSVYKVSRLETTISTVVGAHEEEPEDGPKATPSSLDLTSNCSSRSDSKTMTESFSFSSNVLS
To be noted: Cascieri 1994; cited from earlier work.

Data set [3] concerns the target T3, human δ opioid receptors (hDOR) (Homo sapiens, UniProt P41143).
T3 construct: expressed in transfected cells; host or cells: HN9.10 neuroblastoma cell line, pCDNA3, neomycin-selected clones
Description: Radioligand competition binding, [3H]DPDPE, hDOR membranes. To be noted: membranes from transfected HN9.10 cells. On the technique in general: Loss of bound radioactivity is the signal in a displacement assay; it reports binding, not function.

The next data set has as its target T4, rat NK1 (rNK1) receptor (Rattus norvegicus, UniProt P14600).
T4 construct: expressed in transfected cells; host or cells: CHO (rNK-1/CHO cell line from Dr. James Krause)
Description: Radioligand competition binding, [3H]substance P, rNK1/CHO membranes. Particulars: for IC50: membranes from transfected CHO cells.

In data set [4] the target is T2, human NK1 receptor (hNK1). As to the kind of experiment: Radioligand competition binding, [3H]-Substance P, hNK1. Particulars: Ki rNK1 vs Ki hNK1.
In data set [5] the target is T3, human δ opioid receptors (hDOR). As to the kind of experiment: [35S]GTP-γ-S binding assay, hDOR. It counts as biochemical. Background: GTPγS resists hydrolysis and so accumulates on activated G proteins.
Data set [6] addresses T5, rat μ opioid receptors (rMOR) (Rattus norvegicus, UniProt P33535).
T5 construct: expressed in transfected cells; host or cells: HN9.10 neuroblastoma cell line, pCDNA3, neomycin-selected clones
Description: biochemical. It counts as biochemical.

A further data set concerns the target T6, δ opioid receptors (MVD) (Mus musculus, UniProt P32300).
T6 construct: from tissue; host or cells: mouse (ICR) isolated vas deferens
As to the kind of experiment: Mouse isolated vas deferens (MVD) assay, opioid agonist.

The subject of a further data set is μ opioid receptors (GPI). As to the kind of experiment: Guinea pig isolated ileum (GPI) assay, opioid agonist.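 Further: inhibition of electrically evoked contractions (0.1 Hz, 0.4 msec, supramaximal voltage) in organ baths at 37 °C, contraction height 3 min after each cumulative dose versus the 1 min before dosing.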
Data set [7] in a line: Octanol/saline distribution (logD7.4). The class given is physicochemical. Particulars: 0.05 N HEPES buffer in 0.1 N NaCl. The procedure:
HEPES buffer (0.05 M HEPES buffer in 0.1 M NaCl, pH 7.4, 500 μL) was added to 2 mg of compound and mixed with 500 μL of 1-octanol. The sample was shaken at r.t. for 12 h to allow equilibrating. The sample was centrifuged at 6500 rpm in a VanGuard V6500 (GlaxoSmithKline, Research Triangle Park, N.C.) for 15 min. The layers were separated and each layer was centrifuged once again. The compound concentrations of obtained layers were analyzed by HPLC (30-70% of acetonitrile containing 0.1% TFA within 20 min and up to 95% within additional 5 min, 1 mL/min, 230 nm, Vydac 218TP104 C-18 column). The logarithm of 1-octanol/saline distribution (logD7.4) was calculated as the ratio of compound concentration in the 1-octanol and saline phases.
Octanol/saline distribution (logD7.4) (Yamamoto, 2007, J. Med. Chem., submitted). HEPES buffer (0.05 M HEPES buffer in 0.1 M NaCl, pH 7.4, 500 μL) was added to 2 mg of compound and mixed with 500 μL of 1-octanol. The sample was shaken at r.t. for 12 h to allow equilibrating. The sample was centrifuged at 6500 rpm in a VanGuard V6500 (GlaxoSmithKline, Research Triangle Park, N.C.) for 15 min. The layers were separated and each layer was centrifuged once again. The compound concentrations in the obtained layers were analyzed by HPLC (30-70% of acetonitrile containing 0.1% TFA within 20 min and up to 95% within additional 5 min, 1 mL/min, 230 nm, Vydac 218TP104 C-18 column). The logarithm of 1-octanol/saline distribution (logD7.4) was calculated as the ratio of compound concentration in the 1-octanol and saline phases.

Data set [8] in a line: Solubility in HEPES buffer. Particulars: pH 7.4; 0.05 N HEPES buffer in 0.1 N NaCl solution. The class given is physicochemical. The method, then:
Solubility. HEPES buffer (0.05 M HEPES buffer in 0.1 M NaCl, pH 7.4, 500 μL) was added to 1 mg of compound. The sample was vortexed for 30 sec, sonicated for 5 min, shaken at r.t. for 2 h, and then allowed to be stayed overnight to equilibration. The sample was filtrated with an Acrodisc Syringe Filter (13 mm, 0.45 μm pore, PTFE membrane, Pall Life Sciences, East Hills, N.Y.).

For data set [9], the system named is male Sprague Dawley rats. Description: Anti-nociception, infrared radiant heat paw withdrawal latency. It counts as in vivo, rat. Particulars: i.th. The procedure: (§1) To estimate the analgesic potency of the chimeric compounds, anti-nociceptive, anti-hyperalgecia and anti-allodynic efficacies is tested via intrathecal (i.th.) or systemic (s.c.) administration of the compounds in L5/L6 spinal nerve ligated (SNL) male Sprague Dawley rats. Anti-nociception and anti-hyperalgecia were determined by using the infrared thermal testing, wherein paw withdrawal latencies were measured in response to a mobile radiant heat (FIG. 7-14). Anti-allodynic effect was measured in von Frey filamental testing (FIG. 7-14). Both chronic and acute animal models were tested ([…]).
(§2) In vivo Biological Activity. […] Food and water was available ad libitum. […] I.th. […] Each training session lasted three minutes. […] Discussion.

Data set [10] deals with L5/L6 spinal nerve ligated (SNL) male Sprague Dawley rats. Description: Anti-hyperalgesia, infrared radiant heat in L5/L6 SNL rats. It counts as in vivo, rat. The method, then: as §1, §2
Data set [11] has the same test system. As to the kind of experiment: Anti-allodynia, von Frey filament testing in L5/L6 SNL rats. To be noted: for anti-allodynic effect against mechanical stimulation: SNL rats, words. The class given is in vivo, rat. The procedure: as §1, §2
Data set [12] can be described thus: Brain distribution, in situ perfusion model. It counts as in vivo. Particulars: FIG. 20.
The test system of data set [13] is male Sprague Dawley rats. As to the kind of experiment: Observation of toxicity throughout the in vivo studies. Also noted: species or system rat.
Excerpt: as §2
These assays gave the inventors very encouraging results.

In data set [14] the test system is normal, uninjured rats. As to the kind of experiment: Rotarod motor skill test. Particulars: highest analgesic dose 30 μg.
Data set [15] deals with normal, uninjured rats. To be noted: reported; cited from earlier work.
Where [16] appears, read: chronic, i.th., SNL-operated animals.

“And” between values parts separate entries of the source, which are not always exact repeats. Equal entries are not always repeated. “Also recorded” adds a separate entry of the source. Where two headings read alike, the source gives them in different places. Bounds are passed on as bounds.

T5 sequence (P33535 whole entry): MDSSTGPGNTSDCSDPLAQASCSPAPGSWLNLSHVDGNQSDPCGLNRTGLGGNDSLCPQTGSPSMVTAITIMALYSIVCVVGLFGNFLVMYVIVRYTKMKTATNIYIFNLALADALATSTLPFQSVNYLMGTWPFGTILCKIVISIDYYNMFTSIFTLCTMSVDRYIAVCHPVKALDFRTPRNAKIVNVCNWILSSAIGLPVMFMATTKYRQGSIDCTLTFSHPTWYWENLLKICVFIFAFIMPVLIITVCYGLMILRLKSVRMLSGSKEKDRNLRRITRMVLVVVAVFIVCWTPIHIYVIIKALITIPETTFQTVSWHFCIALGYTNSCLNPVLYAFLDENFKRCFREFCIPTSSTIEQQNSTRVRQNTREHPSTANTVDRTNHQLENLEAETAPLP
T4 sequence (P14600 whole entry): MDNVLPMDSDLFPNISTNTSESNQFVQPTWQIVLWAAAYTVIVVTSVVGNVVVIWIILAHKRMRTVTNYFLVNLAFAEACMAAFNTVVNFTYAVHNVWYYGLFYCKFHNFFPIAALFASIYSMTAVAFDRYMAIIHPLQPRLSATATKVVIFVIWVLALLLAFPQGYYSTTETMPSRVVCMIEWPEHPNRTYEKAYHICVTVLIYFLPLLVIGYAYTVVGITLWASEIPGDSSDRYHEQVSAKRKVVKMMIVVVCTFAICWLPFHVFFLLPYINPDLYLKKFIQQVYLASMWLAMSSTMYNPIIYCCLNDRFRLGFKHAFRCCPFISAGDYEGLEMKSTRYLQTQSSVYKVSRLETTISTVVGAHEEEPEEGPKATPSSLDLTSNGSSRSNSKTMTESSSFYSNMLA
T3 sequence (P41143 whole entry): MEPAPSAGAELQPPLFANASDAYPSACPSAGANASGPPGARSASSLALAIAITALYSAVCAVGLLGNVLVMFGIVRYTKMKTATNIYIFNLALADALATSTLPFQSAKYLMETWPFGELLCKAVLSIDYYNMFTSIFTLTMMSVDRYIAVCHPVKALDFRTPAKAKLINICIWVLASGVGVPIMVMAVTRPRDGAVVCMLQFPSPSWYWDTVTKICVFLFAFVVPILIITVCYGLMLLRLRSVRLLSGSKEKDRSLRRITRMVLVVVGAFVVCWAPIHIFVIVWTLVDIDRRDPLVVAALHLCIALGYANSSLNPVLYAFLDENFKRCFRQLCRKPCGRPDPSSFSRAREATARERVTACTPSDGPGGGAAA
T1 sequence (P30547 whole entry): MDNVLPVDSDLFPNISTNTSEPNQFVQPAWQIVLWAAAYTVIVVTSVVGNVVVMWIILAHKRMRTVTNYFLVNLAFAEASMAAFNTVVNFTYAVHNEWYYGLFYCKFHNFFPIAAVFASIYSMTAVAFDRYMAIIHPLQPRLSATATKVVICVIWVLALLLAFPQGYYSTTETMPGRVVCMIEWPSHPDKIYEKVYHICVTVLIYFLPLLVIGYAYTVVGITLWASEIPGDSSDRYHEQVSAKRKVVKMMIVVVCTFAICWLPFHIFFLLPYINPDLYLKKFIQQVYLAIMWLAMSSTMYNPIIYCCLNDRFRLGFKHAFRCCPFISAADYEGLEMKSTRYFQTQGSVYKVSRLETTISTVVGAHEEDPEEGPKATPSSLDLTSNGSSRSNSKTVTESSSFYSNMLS
T6 sequence (P32300 whole entry): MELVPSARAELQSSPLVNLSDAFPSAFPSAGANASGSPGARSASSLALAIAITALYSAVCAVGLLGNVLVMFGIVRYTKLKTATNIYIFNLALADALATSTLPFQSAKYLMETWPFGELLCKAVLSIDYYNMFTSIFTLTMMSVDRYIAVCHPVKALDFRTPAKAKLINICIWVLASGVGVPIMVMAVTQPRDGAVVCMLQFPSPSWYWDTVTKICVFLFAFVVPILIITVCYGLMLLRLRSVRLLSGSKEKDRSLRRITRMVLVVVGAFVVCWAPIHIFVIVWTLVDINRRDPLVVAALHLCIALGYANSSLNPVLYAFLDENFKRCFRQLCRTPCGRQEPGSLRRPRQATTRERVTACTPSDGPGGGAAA

Consider `CC(=O)N[C@@H](Cc1c[nH]c2ccccc12)C(=O)OCc1cc(C(F)(F)F)cc(C(F)(F)F)c1` [L-732,138, Ac-Trp-3,5-O-Bzl(CF3)2, reference compound], for which the “Substance P antagonist, GPI, Ke” value is 250 ± 87 nM in [1] (Table 16, in the presence of 1 μM naloxone); 250 ± 87 nM in data set [1] (Table 22, in the presence of 1 μM naloxone); 247 nM in data set [1] (in the presence of 1 μM naloxone); 247 ± 87 nM and 250 ± 87 nM in [1] (in the presence of 1 μM naloxone, 138). Also, the “less affinity for rNK1 than hNK1 receptor” value in [2] is given as 200 fold.
Take `CSCC[C@H](NC(=O)[C@H](Cc1ccccc1)NC(=O)CNC(=O)[C@@H](C)NC(=O)[C@@H](N)Cc1ccc(O)cc1)C(=O)N1CCC[C@H]1C(=O)N[C@@H](CC(C)C)C(=O)N[C@@H](Cc1c[nH]c2ccccc12)C(=O)OCc1cc(C(F)(F)F)cc(C(F)(F)F)c1` [TY005, H-Tyr-D-Ala-Gly-Phe-Met-Pro-Leu-Trp-O-3,5-Bzl(CF3)2]: the “LogIC50, hDOR, [3H]DPDPE” value in data set [3] is −8.22 ± 0.06. Also, the affinity on rat NK1 (rNK1) receptor (Affinity rNK1 (Ki; nM), Table 29), expressed as Ki, was 0.2 nM. The IC50 on rat NK1 (rNK1) receptor (IC50, rNK1, Substance P radioligand) was 6.4 nM; on rat NK1 (rNK1) receptor (LogIC50, rNK1, Substance P radioligand), 6.03 nM; at δ opioid receptors (MVD), 22.3 nM; in the data set on μ opioid receptors (GPI) (Table 16, electrically stimulated isolated tissue, read-out: Opioid agonist GPI (μ), IC50), 360 ± 130 nM; in the data set on μ opioid receptors (GPI) (Table 28, read-out: GPI/LMMP Opioid(m) Agonist (IC50; nM)), 359 nM; in the data set with μ opioid receptors (GPI) (Table 30, read-out: GPI/LMMP Opioid(m) Agonist (IC50; nM)) it was 359 nM. The IC50 with μ opioid receptors (GPI) (Table 39, read-out: GPI/LMMP opioid(mu) agonist (IC50; nM)) came out at 359 nM; in the data set with μ opioid receptors (GPI) (electrically stimulated isolated tissue, read-out: GPI (μ), IC50) it was 359 ± 127 nM. Also, in data set [4], the “species difference between affinities at rNK1 and hNK1” value came out at 3.4 fold. The Emax worked out at 51% in [5] (read-out: Emax, hDOR, [35S]GTP-γ-S binding); 47.6% in [5] (read-out: GTP binding hDOR Emax); 47.6% in [5] (read-out: GTP binding hDOR Emax (%)); 45% in [6] (read-out: Emax, rMOR, [35S]GTP-γ-S binding); 45.6% in data set [6] (read-out: GTP binding rMOR Emax); 45.6% in data set [6] (read-out: GTP binding rMOR Emax (%)). Also, in [1] (Substance P antagonist, GPI, Ke, in the presence of 1 μM naloxone), the Kb came to 24.7 ± 8.8 nM. Further, the activation at 1 µM in data set [1] (read-out: Substance P GPI agonist (A50), at 1 μM, contraction relative to initial muscle contraction with KCl) stood at 0%. The same compound returned a logD7.4 in data set [7] above 4.0. This compound had a solubility in data set [8] below 0.2 µg/mL. For the same compound, the “time after administration at which efficacy disappeared” value with male Sprague Dawley rats [9] stood at 45 min. The anti-nociceptive effect result with male Sprague Dawley rats [9] (infrared radiant heat, words) is “very potent; also recorded: distinct anti-nociceptive effect”. Moreover, the anti-hyperalgesic recovery in [10] (30 μg i.th., SNL rats) is recorded as around 100%. In data set [10] (setting [16]), the “thermal hyperalgesia after chronic administration” value is listed as “attenuates thermal hyperalgesia”. In addition, the anti-hyperalgesic efficacy entry in [10] (i.th., SNL rats, words) is “very potent; also recorded: Dose dependent anti-hyperalgesic efficacy”. In addition, the “anti-allodynic effect against mechanical stimulation” value in [11] is “very potent anti-allodynic effect”. For the same compound, the “mechanical allodynia after chronic administration” value in data set [11] (setting [16]) was “reverses mechanical allodynia”. The “blood brain barrier penetration” value in data set [12] is “penetrate blood brain barrier”. For the same compound, in the data set with male Sprague Dawley rats [13], the sign of toxicity result was “without any sign of toxicity; also recorded: no sign of toxicity”. In addition, the “sensorimotor impairment in rotarod test” value in the data set on normal, uninjured rats [14] is reported as “no sensorimotor impairment”.
In the case of `CN1CC[C@]23c4c5ccc(O)c4O[C@H]2[C@@H](O)C=C[C@H]3[C@H]1C5` [morphine, reference compound], the “anti-allodynic effect against mechanical stimulation” value in [11] was “negligible anti-allodynic efficacy”. Further, the rotarod performance entry in the data set with normal, uninjured rats [15] is given as “impaired performance”.

In general, Ki refers to a dissociation constant, usually derived from enzyme kinetics or from competition with a known ligand. A high value points to lower affinity. For orientation: Emax means the size of the effect at its maximum, as opposed to the concentration needed. Broadly, the Kb is the affinity of an antagonist, worked out from how it opposes an agonist. Usually solubility stands for how much of the substance goes into solution per volume. High values mean much dissolved substance, low ones little dissolved substance.
